Laboratory results taken from patent US6620815B1, “Oxazolidinones and uses thereof” (Synaptic Pharmaceutical Corporation, priority 1997, dated 2003).
Where a name gives a salt, the structure may show the parent alone.

Assays:
[1] = molecular target: T1, cloned human α1A receptor (Homo sapiens, UniProt P35348); assay: Radioligand binding assay, [3H] prazosin displacement, cloned human α1A receptor; conditions: [3H] prazosin 0.5 nM, membrane preparations of transfected LM(tk-) cells; read-out: hα1A Ki
T1 sequence (P35348 1-466): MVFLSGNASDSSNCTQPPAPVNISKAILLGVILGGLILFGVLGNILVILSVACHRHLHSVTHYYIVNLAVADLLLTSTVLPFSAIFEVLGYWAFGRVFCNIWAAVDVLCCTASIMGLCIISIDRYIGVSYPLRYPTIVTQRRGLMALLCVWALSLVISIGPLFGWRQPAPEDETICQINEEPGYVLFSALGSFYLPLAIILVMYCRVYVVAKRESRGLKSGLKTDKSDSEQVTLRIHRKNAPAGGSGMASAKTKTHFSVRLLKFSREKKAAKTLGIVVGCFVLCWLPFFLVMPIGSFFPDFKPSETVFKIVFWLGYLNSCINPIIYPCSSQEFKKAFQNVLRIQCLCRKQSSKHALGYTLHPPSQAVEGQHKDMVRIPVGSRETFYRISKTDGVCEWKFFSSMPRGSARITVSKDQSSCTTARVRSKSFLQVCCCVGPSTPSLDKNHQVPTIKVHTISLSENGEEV
Procedure: (§1) These cell lines were prepared by transfecting the cloned cDNA or cloned genomic DNA or constructs containing both genomic DNA and cDNA encoding the human α-adrenergic receptors as follows:
The construct involved ligating three partial overlapping fragments: a 5′ 0.6 kb HincII genomic clone, a central 1.8 EcoRI hippocampal cDNA clone, and a 3′ 0.6 Kb PstI genomic clone. The hippocampal cDNA fragment overlaps with the 5′ and 3′ genomic clones so that the HincII and PstI sites at the 5′ and 3′ ends of the cDNA clone, respectively, were utilized for ligation. This full-length clone was cloned into the KpnI site of the expression vector, using the 5′ and 3′ KpnI sites of the fragment, derived from vector (i.e., pBluescript) and 3′-untranslated sequences, respectively. Stable cell lines were selected as described above.
(§2) Transfected cells from culture flasks were scraped into 5 ml of 5 mM Tris-HCl, 5 mM EDTA, pH 7.5, and lysed by sonication. The cell lysates were centrifuged at 1000 rpm for 5 min at 4° C., and the supernatant was centrifuged at 30,000×g for 20 min at 4° C. The pellet was suspended in 50 mM Tris-HCl, 1 mM MgCl2, and 0.1% ascorbic acid at pH 7.5. Binding of the α1 antagonist [^3H] prazosin (0.5 nM, specific activity 76.2 Ci/mmol) to membrane preparations of LM(tk−) cells was done in a final volume of 0.25 ml and incubated at 37° C. for 20 min. Nonspecific binding was determined in the presence of 10 μM phentolamine. The reaction was stopped by filtration through GF/B filters using a cell harvester.

[2] = molecular target: T2, cloned human α1B receptor (Homo sapiens, UniProt P35368); assay: Radioligand binding assay, [3H] prazosin displacement, cloned human α1B receptor; conditions: [3H] prazosin 0.5 nM, membrane preparations of transfected LM(tk-) cells; read-out: hα1B Ki
T2 sequence (P35368 1-520): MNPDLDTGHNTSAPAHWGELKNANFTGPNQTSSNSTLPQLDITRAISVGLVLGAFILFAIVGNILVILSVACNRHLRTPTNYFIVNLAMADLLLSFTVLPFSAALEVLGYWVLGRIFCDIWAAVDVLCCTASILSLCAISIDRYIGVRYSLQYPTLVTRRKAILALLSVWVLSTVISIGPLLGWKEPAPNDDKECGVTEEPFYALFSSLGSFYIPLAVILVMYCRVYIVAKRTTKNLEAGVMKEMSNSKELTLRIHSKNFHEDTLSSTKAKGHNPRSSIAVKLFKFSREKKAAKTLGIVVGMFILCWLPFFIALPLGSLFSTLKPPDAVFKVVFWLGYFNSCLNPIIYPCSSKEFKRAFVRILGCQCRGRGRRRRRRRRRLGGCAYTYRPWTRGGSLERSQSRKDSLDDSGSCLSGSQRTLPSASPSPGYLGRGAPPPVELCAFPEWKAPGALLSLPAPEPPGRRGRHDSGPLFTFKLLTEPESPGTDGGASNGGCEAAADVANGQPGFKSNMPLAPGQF
Procedure: as §1
The construct involved ligating the full-length containing EcoRI brainstem cDNA fragment from λ ZapII into the expression vector. Stable cell lines were selected as described above.
as §2

[3] = molecular target: T3, cloned human α1D receptor (Homo sapiens, UniProt P25100); assay: Radioligand binding assay, [3H] prazosin displacement, cloned human α1D receptor; conditions: [3H] prazosin 0.5 nM, membrane preparations of transfected LM(tk-) cells; read-out: hα1D Ki
T3 sequence (P25100 1-572): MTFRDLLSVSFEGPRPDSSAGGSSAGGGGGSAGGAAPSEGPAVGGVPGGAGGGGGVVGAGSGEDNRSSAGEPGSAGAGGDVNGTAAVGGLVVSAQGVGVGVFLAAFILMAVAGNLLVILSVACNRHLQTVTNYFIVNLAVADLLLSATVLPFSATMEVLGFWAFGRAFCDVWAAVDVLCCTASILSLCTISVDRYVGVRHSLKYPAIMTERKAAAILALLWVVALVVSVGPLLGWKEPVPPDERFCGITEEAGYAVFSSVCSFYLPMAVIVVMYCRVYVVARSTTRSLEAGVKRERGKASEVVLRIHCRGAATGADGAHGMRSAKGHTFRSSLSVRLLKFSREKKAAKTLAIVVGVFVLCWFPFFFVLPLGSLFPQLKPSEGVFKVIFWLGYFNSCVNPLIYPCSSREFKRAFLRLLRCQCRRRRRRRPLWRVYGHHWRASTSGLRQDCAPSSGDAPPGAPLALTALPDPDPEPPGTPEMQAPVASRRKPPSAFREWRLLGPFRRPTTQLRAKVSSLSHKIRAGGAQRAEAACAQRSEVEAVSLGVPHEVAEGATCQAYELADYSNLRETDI
Procedure: as §1
The cells were grown, in a controlled environment (37° C., 5% CO2), as monolayers in Dulbecco's modified Eagle's Medium (GIBCO, Grand Island, N.Y.) containing 25 mM glucose and supplemented with 10% bovine calf serum, 100 units/ml penicillin g, and 100 μg/ml streptomycin sulfate.
as §2

Question: Which melting point does the source give for Cl.N#CC1(c2ccccc2)CCN(CCCNC(=O)N2C(=O)OCC2(c2ccccc2)c2ccccc2)CC1 here?
Answer: 139 to 141 °C

Question: Which melting point does the source give for CC(=O)OC1(c2ccccc2)CCN(CCCNC(=O)N2C(=O)OC(C)(C)C2c2ccc(F)c(F)c2)CC1.Cl (stereo not drawn) here?
Answer: 116 to 118 °C

Question: For CC1(C)OC(=O)N(C(=O)NCC(F)CN2CCC(C#N)(c3ccccc3)CC2)C1c1ccc(F)c(F)c1.Cl (stereo not drawn), which melting point is on record?
Answer: 120 to 122 °C

Question: Which melting point does the source give for Cl.Cl.O=C1OCC(c2ccc(F)c(F)c2)N1C(=O)N1CCCC(CN2CCC(c3ccccn3)CC2)C1 (stereo not drawn) here?
Answer: 176 to 178 °C

Question: With O=C(NCCCN1CCC(c2ccccc2)(c2ccco2)CC1)N1C(=O)OCC1c1ccc(F)c(F)c1 (stereo not drawn) (as salt: HCl) as the compound, how does the melting point read?
Answer: 149 to 151 °C

Question: Which melting point does the source give for N#CC1(c2ccccc2)CCC(N2CCN(C(=O)N3C(=O)OCC3c3ccc(F)c(F)c3)CC2)CC1 (stereo not drawn) (as salt: HCl) [Example 34, 4-{4-[4-(3,4-Difluoro-phenyl)-2-oxo-oxazolidine-3-carbonyl]-piperazin-1-yl}-1-phenyl-cyclohexanecarbonitrile] here?
Answer: 148 to 151 °C

Question: With COc1ccccc1N1CCN(CCCCCN2C(=O)OCC2c2ccc(F)c(F)c2)CC1 (stereo not drawn) (as salt: hydrochloride) [Example 2, 4-(3,4-Difluorophenyl)-3-{5-[4-(2-methoxy-phenyl)-piperazin-1-yl]-pentyl}-oxazolidin-2-one] as the compound, how does the melting point read?
Answer: 174 to 178 °C

Question: With COC(=O)C1(c2ccccc2)CCN(CCNC(=O)N2C(=O)OCC2c2ccc(F)c(F)c2)CC1 (stereo not drawn) (as salt: hydrochloride) [Example 21, 4-(3,4-Difluorophenyl)-2-oxo-oxazolidine-3-carboxylic Acid{2-[4-phenylpiperidine-4-(carboxylic Acid Methyl Ester)]ethyl}amide] as the compound, how does the melting point read?
Answer: 80 to 85 °C

Question: Which Ki [1] does the source give for COc1ccccc1N1CCN(CCCCCN2C(=O)OCC2c2ccc(F)c(F)c2)CC1 (stereo not drawn) [Example 2, 4-(3,4-Difluorophenyl)-3-{5-[4-(2-methoxy-phenyl)-piperazin-1-yl]-pentyl}-oxazolidin-2-one] here?
Answer: 0.5 nM

Question: And the Ki [2]?
Answer: 21 nM

Question: And the Ki [3]?
Answer: 11 nM

Question: With COC(=O)C1(c2ccccc2)CCN(CCNC(=O)N2C(=O)OCC2c2ccc(F)c(F)c2)CC1 (stereo not drawn) [Example 21, 4-(3,4-Difluorophenyl)-2-oxo-oxazolidine-3-carboxylic Acid{2-[4-phenylpiperidine-4-(carboxylic Acid Methyl Ester)]ethyl}amide] as the compound, how does the Ki [1] read?
Answer: 21 nM

Question: And the Ki [2]?
Answer: 891 nM

Question: What about the Ki [3] of the same compound?
Answer: 2460 nM

Question: With CC1(C)OC(=O)N(C(=O)NCC(O)CN2CCC(C#N)(c3ccccc3)CC2)C1c1ccc(F)c(F)c1.Cl (stereo not drawn) [Example 28, N3-[3-(4-Cyano-4-phenylpiperidino)-2-hydroxypropyl]-4-(3,4-difluorophenyl)-5,5-dimethyl-2-oxo-oxazolidine-3-carboxamide Hydrochloride] as the compound, how does the melting point read?
Answer: 135 to 137 °C

Question: And the Ki [1]?
Answer: 0.7 nM

Question: What about the Ki [2] of the same compound?
Answer: 4010 nM

Question: And the Ki [3]?
Answer: 3660 nM
